The record followed here is US20260306527A1, “PRMT INHIBITOR COMPOUNDS AND THE USES THEREOF” (Purdue Research Foundation, priority 2023, published 2026).

Assay type in all cases: biochemical
Experiment [1] addresses T1, PRMT1 (Homo sapiens, UniProt Q99873).
T1 construct: made in house
Description: SAHH-coupled fluorescence assay, inhibition of PRMT1. The settings on record: for IC50: read-out: IC50[μM] | PRMT1. Summed up: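 PRMT1 (0.1 μM) was run with 10 μM AdoMet, 5 μM SAHH and 10 μM ThioGlo4 in 2.5 mM HEPES pH 7.0, 25 mM NaCl, 25 μM EDTA, 50 μM TCEP and 0.01% Triton X-100. Fluorescence (ex 400/em 465 nm) was monitored for 15 min. Assays were done in duplicate.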

Experiment [2] has as its system PRMT3. Description: SAHH-coupled fluorescence assay, inhibition of PRMT3. Conditions: read-out: IC50[μM] | PRMT3. The protocol: A fluorescence-based SAHH-coupled assay was applied to study the inhibition activity of all synthesized compounds on PRMT 1 and 3.
The PRMT3 methylation assay was performed under the following conditions in a final well volume of 100 μL: 20 mM Tris (pH=7.5), 0.01% Triton X-100, 5 μM SAHH, 0.25 μM PRMT3, 30 μM AdoMet, and 15 μM ThioGlo4. […] Fluorescence was monitored on a BMG CLARIOstar microplate reader with excitation 380 nm and emission 505 nm. Data were processed by using GraphPad Prism software 8.0. All experiments were performed in duplicate.
(§1) Next, the inhibition activity of the library was investigated for five PRMT members from type I PRMTs.
The PRMT3 methylation assay was performed under the following conditions in a final well volume of 100 μL: 20 mM Tris (pH=7.5), 0.01% Triton X-100, 5 μM SAHH, 0.25 μM PRMT3, 30 μM AdoMet, and 15 μM ThioGlo4. […] Fluorescence was monitored on a BMG CLARIOstar microplate reader with excitation 380 nm and emission 505 nm. Data were processed by using GraphPad Prism software 8.0.

Experiment [3] concerns the target T2, PRMT4 (Homo sapiens, UniProt Q86X55).
T2 sequence (Q86X55 1-608): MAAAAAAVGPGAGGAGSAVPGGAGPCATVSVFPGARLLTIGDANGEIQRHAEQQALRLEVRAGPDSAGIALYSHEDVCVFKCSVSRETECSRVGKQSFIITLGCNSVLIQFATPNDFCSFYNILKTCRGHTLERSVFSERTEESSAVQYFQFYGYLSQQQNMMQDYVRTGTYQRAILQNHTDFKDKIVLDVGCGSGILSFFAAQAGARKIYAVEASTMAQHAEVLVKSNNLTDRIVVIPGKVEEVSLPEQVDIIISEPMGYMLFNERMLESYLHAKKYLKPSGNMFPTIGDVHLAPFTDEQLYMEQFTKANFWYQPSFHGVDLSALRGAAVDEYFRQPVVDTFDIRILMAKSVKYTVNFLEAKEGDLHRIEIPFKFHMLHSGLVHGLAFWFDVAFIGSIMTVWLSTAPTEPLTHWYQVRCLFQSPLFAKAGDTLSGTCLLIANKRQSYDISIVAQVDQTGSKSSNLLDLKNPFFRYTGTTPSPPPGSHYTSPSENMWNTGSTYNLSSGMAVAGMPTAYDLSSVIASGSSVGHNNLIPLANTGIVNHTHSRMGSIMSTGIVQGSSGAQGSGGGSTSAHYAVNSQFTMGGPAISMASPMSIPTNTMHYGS
Briefly: radioactive assay (Reaction Biology Corp.), inhibition of PRMT4. The protocol: as §1
(§2) The PRMT 4, 6 and 8 methylation assays were performed by Reaction Biology corp.

Experiment [4] addresses PRMT6 (Homo sapiens, UniProt Q96LA8). Briefly: radioactive assay (Reaction Biology Corp.), inhibition of PRMT6. As for the experimental part:
as §1, §2

Experiment [5] deals with PRMT8 (Homo sapiens, UniProt Q9NR22). Briefly: radioactive assay (Reaction Biology Corp.), inhibition of PRMT8. The protocol:
as §1, §2

In experiment [6] the target is PRMT3 (Homo sapiens, UniProt O60678). Briefly: SAHH-coupled fluorescence assay, inhibition of PRMT3. Details: PRMT3 (residues 211-531) was cloned into the pET28a-MHL expression vector; tag of the pET28a-MHL vector (not described); made in house; host or cells: Escherichia coli BL21(DE3). Summed up:
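Coupled SAHH/ThioGlo4 fluorescence read-out (ex 380 nm, em 505 nm) of PRMT3 (0.25 μM) methylation with 30 μM AdoMet and 5 μM SAHH. Buffer was 20 mM Tris pH 7.5 with 0.01% Triton X-100. Run in duplicate.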

What is called inhibition is the drop in the measured response relative to a control, in per cent. In general, IC50 refers to the concentration at which inhibition is half-maximal.

T1 sequence (Q99873 whole entry, species assumed): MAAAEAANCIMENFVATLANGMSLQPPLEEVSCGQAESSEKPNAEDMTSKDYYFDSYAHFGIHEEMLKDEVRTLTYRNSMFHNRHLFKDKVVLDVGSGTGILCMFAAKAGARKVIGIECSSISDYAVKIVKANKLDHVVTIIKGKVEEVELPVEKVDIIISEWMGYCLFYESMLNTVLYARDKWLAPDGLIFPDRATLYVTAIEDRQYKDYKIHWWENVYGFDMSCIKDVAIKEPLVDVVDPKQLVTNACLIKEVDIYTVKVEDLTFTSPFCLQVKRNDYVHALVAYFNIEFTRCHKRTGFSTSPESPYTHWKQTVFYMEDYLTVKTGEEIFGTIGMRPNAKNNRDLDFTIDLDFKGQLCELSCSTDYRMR
PRMT3 (Homo sapiens, UniProt O60678), sequence (O60678 211-531): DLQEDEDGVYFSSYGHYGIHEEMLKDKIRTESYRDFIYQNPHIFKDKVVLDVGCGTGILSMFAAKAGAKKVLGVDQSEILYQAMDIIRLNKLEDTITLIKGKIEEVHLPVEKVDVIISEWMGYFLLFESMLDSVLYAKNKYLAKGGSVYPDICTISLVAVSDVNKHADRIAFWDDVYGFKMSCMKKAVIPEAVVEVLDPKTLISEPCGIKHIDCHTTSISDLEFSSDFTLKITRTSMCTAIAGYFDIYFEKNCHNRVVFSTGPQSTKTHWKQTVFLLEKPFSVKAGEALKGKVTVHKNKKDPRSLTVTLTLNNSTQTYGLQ
PRMT6, sequence (Q96LA8 whole entry, species assumed): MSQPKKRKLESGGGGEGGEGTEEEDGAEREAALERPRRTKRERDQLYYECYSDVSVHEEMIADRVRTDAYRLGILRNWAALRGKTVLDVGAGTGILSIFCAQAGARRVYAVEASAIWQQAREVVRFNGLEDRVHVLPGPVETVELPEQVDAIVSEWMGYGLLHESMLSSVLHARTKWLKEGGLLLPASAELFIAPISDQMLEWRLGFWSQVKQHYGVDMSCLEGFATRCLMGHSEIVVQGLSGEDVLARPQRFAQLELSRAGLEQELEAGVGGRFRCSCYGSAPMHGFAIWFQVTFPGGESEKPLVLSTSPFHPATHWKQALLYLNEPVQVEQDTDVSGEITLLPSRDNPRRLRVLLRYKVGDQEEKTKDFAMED
PRMT8, sequence (Q9NR22 whole entry, species assumed): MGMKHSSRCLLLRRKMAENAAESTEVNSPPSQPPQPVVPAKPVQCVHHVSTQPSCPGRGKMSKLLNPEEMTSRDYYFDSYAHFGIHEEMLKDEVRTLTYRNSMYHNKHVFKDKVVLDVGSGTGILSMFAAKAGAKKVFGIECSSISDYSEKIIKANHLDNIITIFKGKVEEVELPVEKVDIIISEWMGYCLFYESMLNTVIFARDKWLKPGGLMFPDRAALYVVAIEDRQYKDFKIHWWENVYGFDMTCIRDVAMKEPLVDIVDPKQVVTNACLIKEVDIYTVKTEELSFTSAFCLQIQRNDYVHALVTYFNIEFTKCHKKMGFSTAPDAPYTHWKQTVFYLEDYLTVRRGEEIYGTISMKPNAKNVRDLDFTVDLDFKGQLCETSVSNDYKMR

As for `N=C(NCCSC[C@H]1O[C@@H](n2cnc3c(N)ncnc32)[C@H](O)[C@@H]1O)Nc1cccc(I)c1` [Compound 5c], the inhibition at 10 µM in experiment [1] turned out to be 95%; in experiment [3], 100%; in experiment [4], 98%; in experiment [5], 99%; in experiment [6], 38%. Besides, the IC50 turned out to be 0.13 ± 0.006 µM in experiment [1] and 8.68 ± 2.9 µM in experiment [2].

As to `N=C(NCCCSC[C@H]1O[C@@H](n2cnc3c(N)ncnc32)[C@H](O)[C@@H]1O)Nc1ccccc1` [Compound 5d], the inhibition at 10 µM in experiment [1] is 94%; in experiment [3], 99%; in experiment [4], 99%; in experiment [5], 98%; in experiment [6] it was 54%. The IC50 in experiment [1] was 0.17 ± 0.011 µM; in experiment [2] it was 7.2 ± 0.61 µM.

For the molecule `N=C(NCCSC[C@H]1O[C@@H](n2cnc3c(N)ncnc32)[C@H](O)[C@@H]1O)Nc1cccc(-c2ccc(Cl)cc2)c1` [Compound 6a], the inhibition at 10 µM in experiment [1] turned out to be 89%; in experiment [3] it was 100%; in experiment [4] it was 91%; in experiment [5], 97%; in experiment [6] it was 62%. Also, the IC50 in experiment [1] was found to be 0.21 ± 0.054 µM; in experiment [2] it was 5.9 ± 0.34 µM.

As for `N=C(NCCSC[C@H]1O[C@@H](n2cnc3c(N)ncnc32)[C@H](O)[C@@H]1O)Nc1cccc(-c2ccc(C(F)(F)F)cc2)c1` [Compound 6b], the inhibition at 10 µM amounted to 83% in experiment [1]; 100% in experiment [3]; 91% in experiment [4]; 94% in experiment [5]; 42% in experiment [6]. The IC50 in experiment [1] was found to be 1.8 ± 0.17 µM; in experiment [2], 12 ± 0.83 µM.

`N=C(NCCSC[C@H]1O[C@@H](n2cnc3c(N)ncnc32)[C@H](O)[C@@H]1O)Nc1cccc(-c2ccoc2)c1` [Compound 6c]: the inhibition at 10 µM was 84% in experiment [1]; 100% in experiment [3]; 76% in experiment [4]; 82% in experiment [5]; 48% in experiment [6]. The values for the IC50 in experiment [1] and in experiment [2] were 1.5 ± 0.12 µM and 8.3 ± 0.34 µM, respectively.

Take `N=C(NCCSC[C@H]1O[C@@H](n2cnc3c(N)ncnc32)[C@H](O)[C@@H]1O)Nc1cccc(-c2cccc(F)c2)c1` [Compound 6d]: the inhibition at 10 µM in experiment [1] was 68%; in experiment [3] it was 100%; in experiment [4], 67%; in experiment [5] it was 81%; in experiment [6], 26%. The IC50 in experiment [1] amounted to 4.9 ± 0.11 µM; in experiment [2], 18 ± 2.1 µM.

Turning to `N=C(NCCCSC[C@H]1O[C@@H](n2cnc3c(N)ncnc32)[C@H](O)[C@@H]1O)Nc1cccc(-c2ccc(O)cc2)c1` [Compound 6e], the inhibition at 10 µM was 95% in experiment [1]; 100% in experiment [3]; 99% in experiment [4]; 98% in experiment [5]; 47% in experiment [6]. Moreover, the figures for the IC50 in experiment [1] and in experiment [2] were 0.23 ± 0.013 µM and 8.6 ± 0.58 µM, respectively.

Consider `N=C(NCCCSC[C@H]1O[C@@H](n2cnc3c(N)ncnc32)[C@H](O)[C@@H]1O)Nc1cccc(-c2ccc(Cl)cc2)c1` [Compound 6f], for which the inhibition at 10 µM in experiment [1] came to 92%; in experiment [3], 100%; in experiment [4], 97%; in experiment [5], 100%; in experiment [6], 76%. Besides, the figures for the IC50 in experiment [1] and in experiment [2] were 0.2 ± 0.031 µM and 1.8 ± 0.23 µM, respectively.

As to `N=C(NCCCSC[C@H]1O[C@@H](n2cnc3c(N)ncnc32)[C@H](O)[C@@H]1O)Nc1cccc(-c2ccc3c(c2)OCCO3)c1` [Compound 6g], the inhibition at 10 µM in experiment [1] was 87%; in experiment [3], 100%; in experiment [4] it was 98%; in experiment [5], 99%; in experiment [6], 64%. In addition, the figures for the IC50 in experiment [1] and in experiment [2] were 0.21 ± 0.023 µM and 3.2 ± 0.47 µM, respectively.

`N=C(NCCCSC[C@H]1O[C@@H](n2cnc3c(N)ncnc32)[C@H](O)[C@@H]1O)Nc1cccc(-c2ccc(C(F)(F)F)cc2)c1` [Compound 6h]: the inhibition at 10 µM in experiment [1] stood at 88%; in experiment [3] it was 100%; in experiment [4], 97%; in experiment [5] it was 99%; in experiment [6], 57%. In addition, the values for the IC50 in experiment [1] and in experiment [2] were 0.25 ± 0.051 µM and 5.7 ± 0.68 µM, respectively.

As for `N=C(NCCCSC[C@H]1O[C@@H](n2cnc3c(N)ncnc32)[C@H](O)[C@@H]1O)Nc1cccc(-c2cccc(F)c2)c1` [Compound 6j], the inhibition at 10 µM in experiment [1] stood at 96%; in experiment [3] it was 100%; in experiment [4] it was 97%; in experiment [5], 99%; in experiment [6], 45%. Besides, the IC50 came to 0.26 ± 0.057 µM in experiment [1] and 4.7 ± 0.83 µM in experiment [2].

On to `N=C(NCCCSC[C@H]1O[C@@H](n2cnc3c(N)ncnc32)[C@H](O)[C@@H]1O)Nc1cccc(-c2ccc(F)cc2F)c1` [Compound 6k], for which the inhibition at 10 µM worked out at 97% in experiment [1]; 100% in experiment [3]; 96% in experiment [4]; 99% in experiment [5]; 50% in experiment [6]. The IC50 in experiment [1] was found to be 0.33 ± 0.072 µM; in experiment [2], 6.6 ± 2.8 µM.

As for `N=C(NCCCSC[C@H]1O[C@@H](n2cnc3c(N)ncnc32)[C@H](O)[C@@H]1O)Nc1cccc(-c2ccc(F)c(O)c2)c1` [Compound 6l], the inhibition at 10 µM was found to be 92% in experiment [1]; 100% in experiment [3]; 97% in experiment [4]; 99% in experiment [5]; 58% in experiment [6]. The IC50 turned out to be 0.17 ± 0.022 µM in experiment [1] and 5.5 ± 1 µM in experiment [2].

On to `N=C(NCCCSC[C@H]1O[C@@H](n2cnc3c(N)ncnc32)[C@H](O)[C@@H]1O)Nc1cccc(-c2cccnc2)c1` [Compound 6m], for which the inhibition at 10 µM was determined as 88% in experiment [1]; 100% in experiment [3]; 93% in experiment [4]; 96% in experiment [5]; 22% in experiment [6]. Besides, the IC50 in experiment [1] stood at 0.9 ± 0.17 µM; in experiment [2], 14 ± 3.1 µM.

For the molecule `N=C(NCCCSC[C@H]1O[C@@H](n2cnc3c(N)ncnc32)[C@H](O)[C@@H]1O)Nc1cccc(-c2ccc(F)nc2)c1` [Compound 6n], the inhibition at 10 µM in experiment [1] is 91%; in experiment [3], 100%; in experiment [4] it was 99%; in experiment [5] it was 100%; in experiment [6], 61%. Besides, the IC50 in experiment [1] stood at 0.35 ± 0.073 µM; in experiment [2], 4.2 ± 0.61 µM.

As to `N=C(NCCCSC[C@H]1O[C@@H](n2cnc3c(N)ncnc32)[C@H](O)[C@@H]1O)Nc1cccc(-c2cncnc2)c1` [Compound 6o], the inhibition at 10 µM in experiment [1] was found to be 102%; in experiment [3] it was 100%; in experiment [4] it was 96%; in experiment [5] it was 95%; in experiment [6], 5%. Further, the IC50 in experiment [1] turned out to be 0.45 ± 0.11 µM; in experiment [2], 25 ± 5 µM.
